# Experimental data as given in ChEMBL document CHEMBL3046387, “Antidepressant activity of carbamates and urea derivatives” (Med Chem Res, 2012).
# Active and inactive are the calls of the source. The rule behind the calls is not given here.
# System: Mus musculus
# Experiment: Antidepressant activity in Mus musculus (mouse) assessed as reduction of immobility time at 10 mg/kg after 1 hr measured for 5 min by forced swim test
# Assay type: functional
Structure (SMILES),inhibition,inhibition in vivo at 10 mg/kg [%]
CCNC(=S)N1CCN(c2ccccc2)CC1,inactive,–
O=C(Nc1ccccc1)N1CCN(c2ccccc2)CC1,–,27.7
CCOC(=O)Nc1ccccc1 [ETHYL PHENYLCARBAMATE],–,21.6
CCCCCCCOC(=O)Nc1ccccc1,–,32.5
CCN(CC)C(=O)Nc1ccc(Cl)cc1,–,7.04
CCN(CC)C(=O)Nc1ccc(C(=O)O)cc1,–,16.7
CCN(CC)C(=O)Nc1ccccc1C(=O)O,–,3.52
CCN(CC)C(=O)Nc1c(C)cccc1C,inactive,–
NNCCc1ccccc1 [PHENELZINE],–,15.9
